The results in this text go back to patent publication US20130183719A1, “METHOD FOR PRODUCING VIRUS VECTOR” (priority 2010, published 2013).

Structures are written as SMILES.

The test system of one experiment is retrovirus vector. Put plainly: RNA copy number in retrovirus supernatant (Retrovirus Titer Set, real time PCR). Particulars: Example 9; FIG. 9. As to the method:
(§1) A working cell bank (WCB) prepared from the cloned cell obtained in Example 7-1 was thawed in a water bath at 37° C. The cell solution thus thawed was put into a 15 mL centrifuging tube. After addition of a complete medium [a DMEM medium (manufactured by Gibco) containing 10% fetal bovine serum (10% FBS, manufactured by SAFC Biosciences)], the tube was subjected to centrifugation (500×g, 5 minutes, 20° C.). After the centrifugation, a supernatant was removed, and the cells were suspended in 10 mL of the complete medium and then counted. After cell counting, the cell suspension was adjusted with the complete medium to 78.5×10^4 cells/mL. To a 100 mm dish for cell culture (manufactured by IWAKI) were added 1 mL of the cell suspension and 14.7 mL of the complete medium. The cell culture was carried out in a CO2 incubator (37° C., 95% of humidity, 5% CO2). The cell was subcultured at intervals of 3 days. […]
The RNA copy number was determined using Retrovirus Titer Set (for Real Time PCR) (manufactured by TAKARA BIO INC.) according to a standard method described in the directions for use attached to the product.
The retrovirus producer cell as described in Example 7-1 was used to prepare virus supernatants. […] However, virus supernatants collected over 3 days were mixed and evaluated in this Example, whereas virus supernatants were collected over 4 days in Example 2-1.

The next experiment relates to PBMC. Put plainly: Gene transduction of PBMC with MS-MA24-siTCR retrovirus supernatants from producer cells cultured in the test media (CD8/MAGE-A4 tetramer flow cytometry). Particulars: Example 9; FIG. 8. It is filed as cell-based, human.
Source text: A HEK 293 T cell (ATCC CRL-11268) was transfected with the codon modified TCR and siRNA-coexpression retroviral vector (MS-MA24-siTCR) described in WO 2008/153029 using Retrovirus Packaging Kit Eco (manufactured by TAKARA BIO INC.) according to the manufacturer's protocol to obtain an ecotropic retrovirus supernatant. The virus supernatant was filtered with a 0.45 μm filter (Milex HV, manufactured by Millipore). A PG13 cell was infected with the filtrate by a method using polybrene, and then cloned by a limiting dilution method.
as §1, with “CO2).” for “CO2). The cell was subcultured at intervals of 3 days.”
(In general: In flow cytometry, cells or beads pass a laser one at a time.)

For the compound `CC(/C=C/C(=O)NO)=C\[C@@H](C)C(=O)c1ccc(N(C)C)cc1` [TSA, trichostatin A], in the experiment with retrovirus vector, the “RNA copy number, TSA 500 nM compared with 50 nM” value is “more effective”. In the experiment on PBMC, the “gene transduction efficiency, TSA 500 nM compared with 50 nM” value is given as “more effective”.
